Source: article PMC5923142, “Selection and Characterization of Rupintrivir-Resistant Norwalk Virus Replicon Cells In Vitro” (Antimicrobial Agents and Chemotherapy, 2018)

What was measured:
[1] = target: T1, GI A105V/I109V mutant protease (Norovirus, UniProt Q83883, A1205V/I1209V); assay: Cell-based FRET assay, GI A105V/I109V protease; parameters: species or system norovirus GI.1 (M87661)
T1 construct: plasmids expressing norovirus protease from GI.1 (M87661); expressed in transfected cells; host or cells: HEK293T
From the text: (§1) The generation of plasmids expressing norovirus protease from GI.1 (M87661), GII.4 (DQ658413), or GV (DQ285629) norovirus and FRET assay constructs has been described previously ([18]). The plasmids carrying GI, GII, and GV proteases with the A105V, I109V, or A105V/I109V mutation were generated from the wild-type (WT) protease constructs described above by the QuikChange site-directed mutagenesis method. Mutant MNV genomes for reverse genetics were generated by two-step PCR mutagenesis of the WT MNV genome (pT7 MNV 3RZ) construct as described previously ([27]). The primers used for generation of the plasmids are listed in Tables S1 and S2 in the supplemental material.
(§2) The YFP/CFP ratio was used to determine FRET efficiency, as described previously ([18], [40]). Briefly, HEK293T cells were plated into black 96-well cell culture microplates (Greiner Bio-One) at a density of 5 × 10^4 cells/well in 100 μl of DMEM containing 10% fetal bovine serum with or without various concentrations of rupintrivir and then incubated for 4 h in a CO2 incubator at 37°C. […] The plates were then analyzed on a SpectraMax i3 instrument in fluorescence mode, with excitation set at 434 nm and the reading emissions set at 477 nm (CFP) and 527 nm (YFP). The background fluorescence from wells transfected with pcDNA3.1 was determined and subtracted. […]

[2] = in vitro; assay type: cell-based; conditions: human; HGT-NV cells, 72 h, resazurin; read-out: 50% cytotoxic concentration (CC50)
Experimental: The cell cytotoxicity of rupintrivir against HGT-NV cells was determined by a resazurin assay ([39]). Briefly, subconfluent HGT-NV cells in 96-well plates were treated with various concentrations of rupintrivir and then incubated for 72 h in a CO2 incubator at 37°C. After incubation, the supernatant was removed and the cells were washed with PBS, and then complete DMEM containing resazurin (0.1 mg/ml) was added to the cells. After 4 h of incubation, the optical density at 560 nm with a 620-nm optical density reference was determined by using a SpectraMax i3 instrument (Molecular Devices). The 50% cytotoxic concentration (CC50) values of rupintrivir were calculated using XLfit (version 5.3) software.

[3] = system: HRV2 N165T; parameters: method as in PMID 17908951; conditions: serial passage of HRV2 for 62 days; cited from earlier work
[4] = target: T2, GV I109V mutant protease (Norovirus, UniProt Q80J95, I1103V); assay: Cell-based FRET assay, GV I109V protease; parameters: species or system murine norovirus (MNV) GV (DQ285629)
T2 construct: plasmids expressing norovirus protease from GI.1 (M87661), GII.4 (DQ658413), or GV (DQ285629) norovirus; expressed in transfected cells; host or cells: HEK293T
T2 sequence (Q80J95 995-1177 I1103V): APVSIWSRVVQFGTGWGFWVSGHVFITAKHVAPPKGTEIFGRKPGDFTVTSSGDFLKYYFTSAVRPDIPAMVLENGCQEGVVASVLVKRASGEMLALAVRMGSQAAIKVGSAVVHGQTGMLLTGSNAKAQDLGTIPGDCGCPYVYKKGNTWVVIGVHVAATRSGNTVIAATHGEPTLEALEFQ
From the text: as §1, §2

T1 sequence (Q83883 1101-1281 A1205V/I1209V): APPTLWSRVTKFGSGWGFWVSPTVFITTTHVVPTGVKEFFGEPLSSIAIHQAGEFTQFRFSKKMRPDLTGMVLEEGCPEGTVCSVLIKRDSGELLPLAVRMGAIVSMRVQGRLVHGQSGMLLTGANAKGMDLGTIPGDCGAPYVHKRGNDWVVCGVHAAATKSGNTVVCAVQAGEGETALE

CCOC(=O)/C=C/[C@H](C[C@@H]1CCNC1=O)NC(=O)[C@@H](CC(=O)[C@@H](NC(=O)c1cc(C)on1)C(C)C)Cc1ccc(F)cc1 [rupintrivir, Rupintrivir]
IC50 ([1]; HEK293T cells, GI NS1/2-NS3 FRET substrate): 6.6 ± 1.2 µM | fold increase in IC50 ([1]; vs GI WT protease): 5.1 fold | CC50 [2]: > 100 µM | fold reduced susceptibility [3]: 2 fold | IC50 ([4]; HEK293T cells, GV NS1/2-NS3 FRET substrate): 2.7 ± 0.6 µM | fold increase in IC50 ([4]; vs GV WT protease): 2.7 fold
